Assay results as given in ChEMBL document CHEMBL3797064, “An evaluation of synthetic indole derivatives as inhibitors of monoamine oxidase” (Bioorg Med Chem Lett, 2016).

Tests used:
[1] = target: T1, Amine oxidase [flavin-containing] A (Homo sapiens, UniProt P21397); assay: Inhibition of human recombinant MAO-A using kynuramine as substrate incubated for 20 mins by fluorescence spectrophotometric analysis
T1 sequence (P21397 whole entry): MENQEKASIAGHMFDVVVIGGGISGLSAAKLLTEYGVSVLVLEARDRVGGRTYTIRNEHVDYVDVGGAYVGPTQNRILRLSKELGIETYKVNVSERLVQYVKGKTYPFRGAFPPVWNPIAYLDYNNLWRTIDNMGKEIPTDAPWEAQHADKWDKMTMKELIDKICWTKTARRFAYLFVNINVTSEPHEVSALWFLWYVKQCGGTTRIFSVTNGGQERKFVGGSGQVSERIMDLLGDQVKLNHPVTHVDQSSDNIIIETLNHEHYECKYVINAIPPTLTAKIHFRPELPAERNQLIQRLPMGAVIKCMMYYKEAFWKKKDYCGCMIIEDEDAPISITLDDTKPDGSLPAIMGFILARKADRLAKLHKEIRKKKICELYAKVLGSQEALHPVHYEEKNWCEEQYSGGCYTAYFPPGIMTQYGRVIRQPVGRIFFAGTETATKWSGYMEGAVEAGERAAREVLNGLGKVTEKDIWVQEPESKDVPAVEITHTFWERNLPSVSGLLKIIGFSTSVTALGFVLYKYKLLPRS

[2] = target: T2, Amine oxidase [flavin-containing] B (Homo sapiens, UniProt P27338); assay: Inhibition of human recombinant MAO-B using kynuramine as substrate incubated for 20 mins by fluorescence spectrophotometric analysis
T2 sequence (P27338 whole entry): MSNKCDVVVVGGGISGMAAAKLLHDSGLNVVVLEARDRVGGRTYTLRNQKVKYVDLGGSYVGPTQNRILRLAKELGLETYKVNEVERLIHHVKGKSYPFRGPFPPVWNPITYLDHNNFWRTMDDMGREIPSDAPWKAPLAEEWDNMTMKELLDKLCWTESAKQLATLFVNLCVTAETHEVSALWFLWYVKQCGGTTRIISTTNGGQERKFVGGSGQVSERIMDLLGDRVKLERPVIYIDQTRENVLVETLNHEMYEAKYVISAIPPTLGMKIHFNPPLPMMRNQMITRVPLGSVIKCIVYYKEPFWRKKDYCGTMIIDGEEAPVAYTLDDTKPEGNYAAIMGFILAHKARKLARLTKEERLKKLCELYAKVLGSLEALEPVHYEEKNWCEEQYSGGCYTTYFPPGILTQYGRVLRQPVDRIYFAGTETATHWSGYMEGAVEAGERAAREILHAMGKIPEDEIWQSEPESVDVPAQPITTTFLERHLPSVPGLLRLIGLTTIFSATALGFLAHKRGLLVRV

Homo sapiens = organism: Homo sapiens; assay: Selectivity index, ratio of IC50 for human recombinant MAO-B to IC50 for human recombinant MAO-A

| SMILES | IC50 [1] | IC50 [2] | Ratio IC50 (Homo sapiens) |
| --- | --- | --- | --- |
| COn1c(-c2ccc(C)cc2)cc2cc3c(cc21)C(=O)NC3=O | 1.75 µM | 0.581 µM | 0.33 |
| O=C1NC(=O)c2cc3c(cc21)cc(-c1cccs1)n3O | 6.35 µM | > 100 µM | > 16 |
| Cc1ccc(-c2cc3cc(C(=O)O)c(C(=O)O)cc3n2O)cc1 | > 100 µM | > 100 µM | – |
| O=C(Cc1cc2c(cc1[N+](=O)[O-])C(=O)NC2=O)c1cccs1 | 6.12 µM | > 100 µM | > 16 |
| COc1ccc(-c2cc3cc(C#N)c(C#N)cc3n2O)cc1 | 1.84 µM | 1.79 µM | 0.97 |
| COc1ccc(C(=O)Cc2cc3c(cc2[N+](=O)[O-])C(=O)N(Cc2ccccc2)C3=O)cc1 | 5.51 µM | > 100 µM | > 18 |
| O=C1NC(=O)c2cc3c(Cl)c(-c4ccccc4)[nH]c3cc21 | 0.25 µM | > 100 µM | > 400 |
| COc1ccc(C(=O)Cc2cc3c(cc2[N+](=O)[O-])C(=O)NC3=O)cc1 | 0.661 µM | 1.21 µM | 1.8 |
| COn1c(-c2ccc(C)cc2)c(C=O)c2cc(C#N)c(C#N)cc21 | 0.405 µM | 74.8 µM | 185 |
| COc1ccc(-c2c(CO)c3cc(C#N)c(C#N)cc3n2OC)cc1 | 1.13 µM | > 100 µM | > 88 |
| COn1c(-c2ccc(C)cc2)c(Br)c2cc(C#N)c(C#N)cc21 | > 100 µM | 7.46 µM | < 0.075 |
| O=C(Cc1cc2c(cc1[N+](=O)[O-])C(=O)N(Cc1ccccc1)C2=O)c1cccs1 | > 100 µM | > 100 µM | – |
| COc1ccc(-c2cc3cc(C(=O)O)c(C(=O)O)cc3n2O)cc1 | > 100 µM | > 100 µM | – |
| O=C(Cc1cc(C(=O)O)c(C(=O)O)cc1[N+](=O)[O-])c1cccs1 | > 100 µM | > 100 µM | – |
| COn1c(-c2ccccc2)c(C=O)c2cc(C#N)c(C#N)cc21 | 0.522 µM | > 100 µM | > 192 |
| COC(=O)c1cc2cc(-c3ccc(OC)cc3)n(OC)c2cc1C(=O)OC | 19 µM | > 100 µM | > 5.3 |
| O=C(Cc1cc2c(cc1[N+](=O)[O-])C(=O)NC2=O)c1ccccc1 | 5.38 µM | 6.79 µM | 1.3 |
| Cc1ccc(-c2cc3cc4c(cc3n2O)C(=O)NC4=O)cc1 | 1.16 µM | 8.09 µM | 7 |

| SMILES | IC50 [1] | IC50 [2] | Ratio IC50 (Homo sapiens) |
| --- | --- | --- | --- |
| Cc1ccc(C(=O)Cc2cc3c(cc2[N+](=O)[O-])C(=O)NC3=O)cc1 | 2.11 µM | 0.923 µM | 0.44 |
| COn1c(-c2ccc(C)cc2)c(CO)c2cc(C#N)c(C#N)cc21 | 5.12 µM | > 100 µM | > 20 |
| O=C(O)c1cc2cc(-c3ccccc3)n(O)c2cc1C(=O)O | 23.3 µM | 56.2 µM | 2.4 |
| O=C(O)c1cc2cc(-c3cccs3)n(O)c2cc1C(=O)O | > 100 µM | > 100 µM | – |
| COn1c(-c2cccs2)cc2cc3c(cc21)C(=O)NC3=O | 6.7 µM | 3.75 µM | 0.56 |
| O=C(Cc1cc(C(=O)O)c(C(=O)O)cc1[N+](=O)[O-])c1ccccc1 | > 100 µM | > 100 µM | – |
| COn1c(-c2ccccc2)cc2cc3c(cc21)C(=O)N(C)C3=O | 1.24 µM | > 100 µM | > 81 |
| Cc1ccc(C(=O)Cc2cc(C(=O)O)c(C(=O)O)cc2[N+](=O)[O-])cc1 | > 100 µM | > 100 µM | – |
| Cc1ccc(-c2cc3cc(C#N)c(C#N)cc3n2O)cc1 | 1.14 µM | 0.821 µM | 0.72 |
| O=C1NC(=O)c2cc3c(cc21)cc(-c1ccccc1)n3O | > 100 µM | 83.1 µM | < 0.83 |
| COn1c(-c2ccccc2)c(CO)c2cc(C#N)c(C#N)cc21 | 4.99 µM | > 100 µM | > 20 |
| N#Cc1cc2cc(-c3ccccc3)n(O)c2cc1C#N | 6.92 µM | 10.3 µM | 1.5 |
| COn1c(-c2ccccc2)c(Br)c2cc(C#N)c(C#N)cc21 | > 100 µM | > 100 µM | – |
| CC(=O)On1c(-c2cccs2)cc2cc(C#N)c(C#N)cc21 | 2.08 µM | 1.94 µM | 0.93 |
| COc1ccc(-c2c(C=O)c3cc(C#N)c(C#N)cc3n2OC)cc1 | 0.147 µM | > 100 µM | > 680 |
| N#Cc1cc2cc(-c3cccs3)n(O)c2cc1C#N | 11.1 µM | > 100 µM | > 9 |
| COc1ccc(C(=O)Cc2cc(C(=O)O)c(C(=O)O)cc2[N+](=O)[O-])cc1 | > 100 µM | > 100 µM | – |
